Reference: US11046699B2, “Pyrazolo-pyrimidin-amino-cycloalkyl compounds and their therapeutic uses” (RAPT THERAPEUTICS, INC., priority 2018, dated 2021)

Target: GCN2 (Homo sapiens, UniProt Q9P2K8)
Experiment: GCN2 enzymatic endpoint assay: phosphorylation of GFP-eIF2α measured by TR-FRET (Lanthascreen)
Format: biochemical
Conditions: GCN2 biochemical IC50; 4 nM GCN2, 2 μM ATP, 80 nM GFP-eIF2α, 90 min RT; read-out: GCN2 activity
How it was run: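 Read-out is the TR-FRET ratio of acceptor signal at 520 nm to terbium donor at 495 nm, rising with antibody binding to phosphorylated GFP-eIF2α. Endpoint format: 2 μM ATP, 80 nM substrate, 90 minutes at room temperature, EDTA stop.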

Chain of GCN2 (Q9P2K8 whole entry): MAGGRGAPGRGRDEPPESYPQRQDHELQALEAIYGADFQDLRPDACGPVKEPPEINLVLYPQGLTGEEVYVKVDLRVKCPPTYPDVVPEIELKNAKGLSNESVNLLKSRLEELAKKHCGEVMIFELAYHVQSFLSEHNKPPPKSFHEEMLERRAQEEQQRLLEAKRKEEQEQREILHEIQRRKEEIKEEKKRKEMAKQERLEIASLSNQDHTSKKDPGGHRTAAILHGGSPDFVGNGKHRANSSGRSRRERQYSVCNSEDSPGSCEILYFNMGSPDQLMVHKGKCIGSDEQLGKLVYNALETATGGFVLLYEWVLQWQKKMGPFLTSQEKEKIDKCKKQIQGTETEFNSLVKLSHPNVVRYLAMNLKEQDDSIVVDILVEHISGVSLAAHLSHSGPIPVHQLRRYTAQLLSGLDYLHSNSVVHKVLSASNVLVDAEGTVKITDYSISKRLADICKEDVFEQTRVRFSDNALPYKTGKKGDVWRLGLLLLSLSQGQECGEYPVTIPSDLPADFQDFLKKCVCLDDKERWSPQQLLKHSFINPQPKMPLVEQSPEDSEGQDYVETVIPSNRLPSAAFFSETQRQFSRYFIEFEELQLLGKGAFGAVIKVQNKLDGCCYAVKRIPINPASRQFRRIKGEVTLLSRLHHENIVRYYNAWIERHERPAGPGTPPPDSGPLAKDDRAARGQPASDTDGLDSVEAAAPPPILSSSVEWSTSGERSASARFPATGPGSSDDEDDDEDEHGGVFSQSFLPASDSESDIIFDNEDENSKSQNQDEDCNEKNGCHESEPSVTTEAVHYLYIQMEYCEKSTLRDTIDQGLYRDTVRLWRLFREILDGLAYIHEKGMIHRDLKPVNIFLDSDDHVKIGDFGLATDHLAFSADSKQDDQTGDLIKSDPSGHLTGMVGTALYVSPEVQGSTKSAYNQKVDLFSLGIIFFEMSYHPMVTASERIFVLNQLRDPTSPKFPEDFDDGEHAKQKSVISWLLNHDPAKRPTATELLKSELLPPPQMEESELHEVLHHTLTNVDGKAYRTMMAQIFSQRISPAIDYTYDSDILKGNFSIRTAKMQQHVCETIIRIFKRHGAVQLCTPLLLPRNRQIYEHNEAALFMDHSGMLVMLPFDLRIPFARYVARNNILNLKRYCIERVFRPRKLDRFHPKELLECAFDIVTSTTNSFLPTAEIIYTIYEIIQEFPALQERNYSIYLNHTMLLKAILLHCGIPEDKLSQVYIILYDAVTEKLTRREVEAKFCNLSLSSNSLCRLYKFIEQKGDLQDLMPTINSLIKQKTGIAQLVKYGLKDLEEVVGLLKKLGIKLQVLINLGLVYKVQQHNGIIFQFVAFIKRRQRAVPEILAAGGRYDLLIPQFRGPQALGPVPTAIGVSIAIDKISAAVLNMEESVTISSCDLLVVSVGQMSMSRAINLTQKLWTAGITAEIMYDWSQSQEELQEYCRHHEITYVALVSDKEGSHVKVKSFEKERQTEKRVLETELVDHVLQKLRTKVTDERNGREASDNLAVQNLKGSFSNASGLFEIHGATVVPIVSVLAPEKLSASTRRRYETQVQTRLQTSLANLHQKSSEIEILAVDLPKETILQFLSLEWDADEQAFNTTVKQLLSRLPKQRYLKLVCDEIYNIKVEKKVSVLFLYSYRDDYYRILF

`CNC(=O)[C@]1(CC(F)F)CC[C@@H](Nc2ncc3c(Br)nn(-c4ccc5nccnc5c4)c3n2)C1` [Example 51, (1R,3R)-3-((3-bromo-1-(quinoxalin-6-yl)-1H-pyrazolo[3,4-d]pyrimidin-6-yl)amino)-1-(2,2-difluoroethyl)-N-methylcyclopentane-1-carboxamide; 2,2,2-trifluoroacetic acid] and `COCCNC(=O)[C@@H]1CC[C@@H](Nc2ncc3c(Br)nn(-c4ccc(-c5ncco5)cc4)c3n2)C1` [Example 26, (1R,3R)-3-((3-bromo-1-(4-(oxazol-2-yl)phenyl)-1H-pyrazolo[3,4-d]pyrimidin-6-yl)amino)-N-(2-methoxyethyl)cyclopentane-1-carboxamide] fall in the same range of IC50: 25 to 200 nM for the first, 25 to 200 nM for the second.

Same assay, conditions: tested as described in Example 77; compound and/or hydrochloride, dihydrochloride or trifluoroacetic acid salt; read-out: IC 50 Activity

Compared with `C[C@@H]1CNC[C@H](C)N1C(=O)[C@@H]1CC[C@@H](Nc2ncc3c(Br)nn(-c4ccc5ncccc5c4)c3n2)C1` [((1R,3R)-3-((3-bromo-1-(quinolin-6-yl)-1H-pyrazolo[3,4-d]pyrimidin-6-yl)amino)cyclo-pentyl)((2R,6S)-2,6-dimethylpiperazin-1-yl)methanone], `O=C([C@@H]1CC[C@@H](Nc2ncc3c(Br)nn(-c4ccc5ncccc5c4)c3n2)C1)N1CCN(CCO)CC1` [((1R,3R)-3-((3-bromo-1-(quinolin-6-yl)-1H-pyrazolo[3,4-d]pyrimidin-6-yl)amino)cyclopentyl)(4-(2-hydroxyethyl)piperazin-1-yl)methanone] is higher in IC50: < 25 nM for the first, 25 to 200 nM for the second.

`CNC(=O)[C@]1(C)CC[C@@H](Nc2ncc3c(Br)nn(-c4ccc5c(c4)n(C)c(=O)c(=O)n5C)c3n2)C1` [(1R,3R)-3-[[3-bromo-1-(1,4-dimethyl-2,3-dioxo-quinoxalin-6-yl)pyrazolo [3,4-d]pyrimidin-6-yl]amino]-N,1-dimethyl-cyclopentanecarboxamide] and `CNC(=O)[C@]1(C)CC[C@@H](Nc2ncc3c(Br)nn(-c4ccc5c(c4)CCN(S(C)(=O)=O)C5)c3n2)C1` [(1R,3R)-3-[[3-bromo-1-(2-methylsulfonyl-3,4-dihydro-1H-isoquinolin-6-yl)pyrazolo [3,4-d]pyrimidin-6-yl]amino]-N,1-dimethyl-cyclopentanecarboxamide] fall in the same range of IC50: 25 to 200 nM for the first, 25 to 200 nM for the second.

`COCCN(C)C(=O)[C@]1(C)CC[C@@H](Nc2ncc3c(Br)nn(-c4cc(F)c5ncccc5c4)c3n2)C1` [(1R,3R)-3-[[3-bromo-1-(8-fluoro-6-quinolyl)pyrazolo[3,4-d]pyrimidin-6-yl]amino]-N-(2-methoxyethyl)-N,1-dimethyl-cyclopentane-carboxamide] and `C[C@@]1(C(=O)NCC2(O)CC2)CC[C@@H](Nc2ncc3c(Br)nn(-c4cc(F)c5ncccc5c4)c3n2)C1` [(1R,3R)-3-[[3-bromo-1-(8-fluoro-6-quinolyl)pyrazolo[3,4-d]pyrimidin-6-yl]amino]-N-[(1-hydroxycyclopropyl)methyl]-1-methyl-cyclopentanecarboxamide] cannot be ordered by IC50: < 25 nM for the first, < 25 nM for the second.

Compared with `O=C1CN(C(=O)[C@@H]2CC[C@@H](Nc3ncc4c(Br)nn(-c5cc(F)c6ncccc6c5)c4n3)C2)CN1`, `CNC(=O)[C@H]1CC[C@@H](Nc2ncc3c(Br)nn(-c4cc(F)c5ncccc5c4)c3n2)C1` [(1S,3R)-3-[[3-bromo-1-(8-fluoro-6-quinolyl)pyrazolo[3,4-d]pyrimidin-6-yl]amino]-N-methyl-cyclopentanecarboxamide] is lower in IC50: 25 to 200 nM for the first, < 25 nM for the second.

`CNC(=O)[C@]1(C)CC[C@@H](Nc2ncc3c(Br)nn(-c4cc(CO)cc(C(F)(F)F)c4)c3n2)C1` [(1R,3R)-3-[[3-bromo-1-[3-(hydroxy-methyl)-5-(trifluoromethyl)phenyl]pyrazolo[3,4-d]pyrimidin-6-yl]amino]-N,1-dimethyl-cyclopentanecarboxamide] and `CNC(=O)[C@]1(C)CC[C@@H](Nc2ncc3c(Br)nn(-c4cc(C#N)cc(CC#N)c4)c3n2)C1` fall in the same range of IC50: 25 to 200 nM for the first, 25 to 200 nM for the second.

`CNC(=O)[C@]1(C)CC[C@@H](Nc2ncc3c(Br)nn(-c4cc(N5CCNCC5=O)c5ncccc5c4)c3n2)C1` [(1R,3R)-3-[[3-bromo-1-[8-(2-oxopiperazin-1-yl)-6-quinolyl]pyrazolo[3,4-d]pyrimidin-6-yl]amino]-N,1-dimethyl-cyclopentane-carboxamide] and `CNC(=O)[C@]1(C)CC[C@@H](Nc2ncc3c(Br)nn(-c4cc(CCNC(=O)/C=C/CN(C)C)c5ncccc5c4)c3n2)C1` [(1R,3R)-3-[[3-bromo-1-[8-[2-[[(E)-4-(dimethylamino)but-2-enoyl]amino]ethyl]-6-quinolyl]pyrazolo[3,4-d]pyrimidin-6-yl]amino]-N,1-dimethyl-cyclopentane-carboxamide] fall in the same range of IC50: 25 to 200 nM for the first, 25 to 200 nM for the second.

`CNC(=O)[C@]1(C)CC[C@@H](Nc2ncc3c(Br)nn(-c4ccc(-c5cncnc5)cc4)c3n2)C1` [(1R,3R)-3-[[3-bromo-1-(4-pyrimidin-5-ylphenyl)pyrazolo[3,4-d]pyrimidin-6-yl]amino]-N,1-dimethyl-cyclopentane-carboxamide] and `CNC(=O)[C@]1(C)CC[C@@H](Nc2ncc3c(Br)nn(-c4ccc(-c5cnn(C)c5C#N)cc4)c3n2)C1` [(1R,3R)-3-[[3-bromo-1-[4-(5-cyano-1-methyl-pyrazol-4-yl)phenyl]pyrazolo[3,4-d]pyrimidin-6-yl]amino]-N,1-dimethyl-cyclopentane-carboxamide] fall in the same range of IC50: 25 to 200 nM for the first, 25 to 200 nM for the second.

`O=C(N[C@@H]1CCNC[C@H]1F)[C@@H]1CC[C@@H](Nc2ncc3c(Br)nn(-c4cc(F)c5ncccc5c4)c3n2)C1` [(1R,3R)-3-((3-bromo-1-(8-fluoroquinolin-6-yl)-1H-pyrazolo[3,4-d]pyrimidin-6-yl)amino)-N-((3R,4R)-3-fluoropiperidin-4-yl)cyclo-pentane-1-carboxamide] and `O=C(N[C@@H]1CNC[C@H]1F)[C@@H]1CC[C@@H](Nc2ncc3c(Br)nn(-c4cc(F)c5ncccc5c4)c3n2)C1` [(1R,3R)-3-((3-bromo-1-(8-fluoroquinolin-6-yl)-1H-pyrazolo[3,4-d]pyrimidin-6-yl)amino)-N-((3R,4R)-4-fluoropyrrolidin-3-yl)cyclo-pentane-1-carboxamide] fall in the same range of IC50: 25 to 200 nM for the first, 25 to 200 nM for the second.

`CNC(=O)[C@]1(C)CC[C@@H](Nc2ncc3c(Br)nn(-c4cc(CCC#N)c5c(c4)CCC(=O)N5C)c3n2)C1` [(1R,3R)-3-[[3-bromo-1-[8-(2-cyanoethyl)-1-methyl-2-oxo-3,4-dihydroquinolin-6-yl]pyrazolo[3,4-d]pyrimidin-6-yl]amino]-N,1-dimethyl-cyclopentanecarboxamide] and `CNC(=O)[C@]1(C)CC[C@@H](Nc2ncc3c(Br)nn(-c4cc(Cl)cc(CCC#N)c4)c3n2)C1` fall in the same range of IC50: 25 to 200 nM for the first, 25 to 200 nM for the second.

First: O=C(O)C12CCC(Nc3ncc4c(Br)nn(-c5ccc6ncccc6c5)c4n3)(C1)C2 [4-((3-bromo-1-(quinolin-6-yl)-1H-pyrazolo [3,4-d]pyrimidin-6-yl)amino)bicyclo[2.1.1] hexane-1-carboxylic acid]
Second: CN(CC(N)=O)C(=O)[C@@H]1CC[C@@H](Nc2ncc3c(Br)nn(-c4cc(F)c5ncccc5c4)c3n2)C1 [(1R,3R)-N-(2-amino-2-oxoethyl)-3-((3-bromo-1-(8-fluoroquinolin-6-yl)-1H-pyrazolo[3,4-d]pyrimidin-6-yl)amino)-N-methylcyclopentane-1-carboxamide]
The IC50 of the first is higher: 500 to 1000 nM for the first, 25 to 200 nM for the second.

`CNC(=O)[C@@H]1CC[C@@H](Nc2ncc3c(Br)nn(-c4ccc(-c5cnn(CCOC)c5)cc4)c3n2)C1` [(1R,3R)-3-[[3-bromo-1-[4-[1-(2-methoxy-ethyl)pyrazol-4-yl]phenyl]pyrazolo[3,4-d]pyrimidin-6-yl]amino]-N-methyl-cyclopentanecarboxamide] and `CNS(=O)(=O)C1CC[C@@H](Nc2ncc3c(Br)nn(-c4ccc(-c5nnc(C)s5)cc4)c3n2)C1` (stereo partly drawn) [(3R)-3-[[3-bromo-1-[4-(5-methyl-1,3,4-thiadiazol-2-yl)phenyl]pyrazolo[3,4-d]pyrimidin-6-yl]amino]-N-methyl-cyclopentanesulfonamide] fall in the same range of IC50: 25 to 200 nM for the first, 25 to 200 nM for the second.

`CNC(=O)[C@]1(C)CC[C@@H](Nc2ncc3c(Br)nn(-c4ccc(F)c(CCN)c4)c3n2)C1` [(1R,3R)-3-[[1-[3-(2-aminoethyl)-4-fluoro-phenyl]-3-bromo-pyrazolo[3,4-d]pyrimidin-6-yl]amino]-N,1-dimethyl-cyclopentane-carboxamide] and `CNC(=O)[C@]1(C)CC[C@@H](Nc2ncc3c(Br)nn(-c4cc(CCN)c5c(c4)CCO5)c3n2)C1` [(1R,3R)-3-[[1-[7-(2-aminoethyl)-2,3-dihydrobenzofuran-5-yl]-3-bromo-pyrazolo [3,4-d]pyrimidin-6-yl]amino]-N,1-dimethyl-cyclopentanecarboxamide] fall in the same range of IC50: 25 to 200 nM for the first, 25 to 200 nM for the second.

`Cc1nnc(-c2ccc(-n3nc(Br)c4cnc(N[C@@H]5CCC(CN6CCOCC6)(C(=O)O)C5)nc43)cc2)s1` (stereo partly shown) and `CNC(=O)[C@@]1(CO)CC[C@@H](Nc2ncc3c(Br)nn(-c4ccc(-c5nnc(C)s5)cc4)c3n2)C1` [(1S,3R)-3-[[3-bromo-1-[4-(5-methyl-1,3,4-thiadiazol-2-yl)phenyl]pyrazolo [3,4-d]pyrimidin-6-yl]amino]-1-(hydroxymethyl)-N-methyl-cyclo-pentanecarboxamide] fall in the same range of IC50: 25 to 200 nM for the first, 25 to 200 nM for the second.

`CNC(=O)[C@]1(CC(F)F)CC[C@@H](Nc2ncc3c(Br)nn(-c4cc(C#N)cc(OCC5CNC5)c4)c3n2)C1` [(1R,3R)-3-[[1-[3-(azetidin-3-ylmethoxy)-5-cyano-phenyl]-3-bromo-pyrazolo[3,4-d]pyrimidin-6-yl]amino]-1-(2,2-difluoroethyl)-N-methyl-cyclopentanecarboxamide] and `CNC(=O)[C@]1(C)CC[C@@H](Nc2ncc3c(Br)nn(-c4cc(CCN)c5nccnc5c4)c3n2)C1` [(1R,3R)-3-[[1-[8-(2-aminoethyl)quinoxalin-6-yl]-3-bromo-pyrazolo[3,4-d]pyrimidin-6-yl]amino]-N,1-dimethyl-cyclopentane-carboxamide] fall in the same range of IC50: 25 to 200 nM for the first, 25 to 200 nM for the second.

Work on `Cc1nnc(-c2ccc(-n3nc(Br)c4cnc(N[C@@H]5CC[C@H](P(C)(C)=O)C5)nc43)cc2)s1` [3-bromo-N-[(1R,3S)-3-dimethylphosphoryl-cyclopentyl]-1-[4-(5-methyl-1,3,4-thiadiazol-2-yl)phenyl]pyrazolo[3,4-d]pyrimidin-6-amine] yielded an IC50 of 25 to 200 nM.
